Residue numbers refer to the chain shown, from its start.
Experiments:
HpHtrA D165A = molecular target: T1, HpHtrA D165A (Helicobacter pylori, UniProt G2J5T2, D165A); details: MST
T1 sequence (G2J5T2 18-475 D165A): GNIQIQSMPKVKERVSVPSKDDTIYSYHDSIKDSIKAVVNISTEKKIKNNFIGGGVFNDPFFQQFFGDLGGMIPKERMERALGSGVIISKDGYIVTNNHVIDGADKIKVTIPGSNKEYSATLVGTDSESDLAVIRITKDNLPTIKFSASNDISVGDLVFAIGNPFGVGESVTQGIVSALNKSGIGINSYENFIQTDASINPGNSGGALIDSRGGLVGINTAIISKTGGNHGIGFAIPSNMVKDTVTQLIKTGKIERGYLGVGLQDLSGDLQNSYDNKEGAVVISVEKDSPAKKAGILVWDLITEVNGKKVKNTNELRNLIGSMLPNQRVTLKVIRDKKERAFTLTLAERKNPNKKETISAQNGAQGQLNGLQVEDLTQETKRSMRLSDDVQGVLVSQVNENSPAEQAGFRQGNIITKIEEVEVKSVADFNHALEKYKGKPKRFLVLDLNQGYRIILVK
Protocol: (§1) Synthesis of 2-Abz-AQRVAFY(3-NO2)-NH2. The peptide was assembled manually on a 20 µmol scale.
(§2) The side-chain protecting groups were Pbf for Arg, and Trt for Gln. Fmoc deprotection was carried out with 25% piperidine in DMF/NMP (80:20, v/v) for 3 min, and 12.5% piperidine in DMF/NMP (80:20, v/v) for 12 min. The double couplings (2x45 min) were accomplished with the mixture Fmoc-AA-OH/HOBt/HBTU/DIPEA (5:5:4.8:10 equiv.). 2 -Boc-Abz-OH was coupled with the same protocol.
(§3) Afterwards, the peptidyl-resin was treated with 25% piperidine in DMF/NMP (80:20, v/v) (2x12 min) to deacylate the 3-nitro-tyrosine side chain. The peptide was simultaneously cleaved from the resin and deprotected by using the mixture TFA/H2O/TIA/EDT/TIS (90:3:1:3:3; Vtot = 1 ml) for about 3 h, precipitated from ice-cold diethyl ether, recovered by centrifugation at 4 °C for 6 min, washed four times with ice-cold diethyl ether, and dried in vacuo. The solid was dissolved in water and lyophilized.
(§4) Microscale thermophoresis .
(§5) D168A, MicroScale Thermophoresis (MST) analysis was performed using the Monolith NT.115 (NanoTemper Technologies). HpHtrA proteases were labeled with red fluorescent dye NT -650-NHS (amine reactive) according to the manufacturer’s protocol. Remaining free dye was removed by buffer exchange column chromatography and proteins were eluted in 50 mM Tris pH 7.4, 150 mM NaCl, 0.04% Tween. 5 nM of labelled HpHtrA was incubated for 15 minutes at RT with decreasing […]
(§6) Measurement was performed with premium treated capillaries (NanoTemper Technologies) and the Monolith NT.115 Microscale Thermophoresis device. Data analysis was performed with MO.Affinity Analysis v2.3 (NanoTemper Technologies) and GraphPad Prism Software (Version 8.0.2). Three independent experiments were […]

HpHtrA D168A = molecular target: T2, HpHtrA D168A (Helicobacter pylori, UniProt G2J5T2, D168A); details: MST
T2 sequence (G2J5T2 18-475 D168A): T1 sequence (G2J5T2 18-475 D165A) with A148D, D151A
Protocol: as §1, §2, §3, §4, §5, §6

HpHtrA S166A = molecular target: T3, HpHtrA S166A (Helicobacter pylori, UniProt G2J5T2, S166A); details: MST
T3 sequence (G2J5T2 18-475 S166A): T1 sequence (G2J5T2 18-475 D165A) with A148D, S149A
Protocol: as §1, §2, §3, §4, §5, §6

HtrA homolog A (HhoA) = details: cited from earlier work
HpHtrA wt = molecular target: T4, HpHtrA wt (Helicobacter pylori, UniProt G2J5T2); assay: biochemical
T4 sequence (G2J5T2 18-475): T1 sequence (G2J5T2 18-475 D165A) with A148D
Protocol: as §1, §2, §3, §4, §5, §6

[Zn+2] [Zn^++, ZnCl2]
Response amplitude (HpHtrA D165A): 3.6
Response amplitude (HpHtrA D168A): 2.7
Response amplitude (HpHtrA S166A): 3.9
effect on HhoA in a casein cleavage assay (HtrA homolog A (HhoA)): inactivates
Kd (HpHtrA wt): 23 ± 12 µM
Response amplitude (HpHtrA wt; MST, 5 nM labelled HpHtrA wt, ZnCl2 1 mM - 30.5 nM): 4.3
S/N (signal to noise ratio) (HpHtrA wt; MST, HpHtrA wt): 6.3

Source: article PMC7324608 (Scientific Reports, 2020)
